Source: patent USRE43327E1, “Hydrophobic polyamine analogs and methods for their use” (Aminex Therapeutics, Inc., priority 2001, dated 2012)
Where “and” joins values, the source holds several entries; their conditions need not be identical. Identical values can stand only once. Like-named read-outs stand apart in the source and are kept apart here.

Columns and labels:
[1] = tested on: 4 cell lines (A375, MDA-MB-231, PC-3, SK-OV-3); assay: Growth inhibition with DFMO, average over 4 cell lines; type: cell-based; settings: Table 3; average over cell lines, with DFMO; read-out: AVG. EC50
PC-3 [2] = assay: Growth inhibition assay, PA alone, PC-3; type: cell-based; settings: PA alone (no DFMO), six days, repeat determinations, read-out: Cell Line IC50 PC-3
Description: (§1) Medias were obtained from Mediatech, Inc. (Herdon, Va.) and serums from Gibco BRL (Gaithersburg, Md.). 50 U/ml penicillin, 50 μg/ml streptomycin and 2 mM L-glutamine (all from Bio Whittaker, Walkersville, Md.) were included in all cultures. […] When cells were cultured with polyamines or ORI compounds, 1 mM aminoguanidine (AG; Sigma) was included to inhibit serum amine oxidase activity.

SK-OV-3 [3] = assay: Growth inhibition assay, PA alone, SK-OV-3; type: cell-based; settings: PA alone (no DFMO), six days, repeat determinations, read-out: Cell Line IC50 SK-OV-3
Description: as §1

[4] = tested on: polyamine transport in MDA-MB-231 cells; assay: Polyamine transport and Ki assay (3H-spermidine uptake); type: cell-based; settings: 15 min 37° C., Lineweaver-Burke analysis
Description: [2,9-^3H]spermidine (SPD) from DuPont NEN, Boston, Mass. was added alone or simultaneously with PAs to 24-well plates containing MDA-MB-23 1 cells in log growth. The cells were incubated at 37° C. for 15 min to determine initial rate polyamine uptake. The cells were then washed three times with cold PBS, lysed with 0.1% SDS, and the amount of polyamine incorporation into the cells was determined by scintillation counting of the cell lysates. […] The Ki values were determined using double reciprocal Lineweaver-Burke plot analyses. Ki values were determined from linear equations derived from graphing the slopes of Lineweaver-Burke plot vs. inhibitor concentration, with Ki=y-intercept/slope.

SK-OV-3 [5] = assay: Growth inhibition assay (MTS/PMS) with DFMO, SK-OV-3; type: cell-based; settings: in the presence of DFMO (1-5 mM), 1 mM AG, 0.5 μM SPD, six days; repeat determinations; read-out: Cell Line EC50 SK-OV-3
Description: as §1

MDA-MB-231 [6] = assay: Growth inhibition assay (MTS/PMS) with DFMO, MDA-MB-231; type: cell-based; settings: in the presence of DFMO (1-5 mM), 1 mM AG, 0.5 μM SPD, six days; repeat determinations; read-out: Cell Line EC50 MDA-MB-231
Description: as §1

PC-3 [7] = assay: Growth inhibition assay (MTS/PMS) with DFMO, PC-3; type: cell-based; settings: in the presence of DFMO (1-5 mM), 1 mM AG, 0.5 μM SPD, six days; repeat determinations; read-out: Cell Line EC50 PC-3
Description: as §1

MDA-MB-231 [8] = assay: Growth inhibition assay, PA alone, MDA-MB-231; type: cell-based; settings: PA alone (no DFMO), six days; repeat determinations; read-out: Cell Line IC50 MDA-MB-231
Description: as §1

A375 [9] = assay: Growth inhibition assay, PA alone, A375; type: cell-based; settings: PA alone (no DFMO), six days, repeat determinations, read-out: Cell Line IC50 A375
Description: as §1

A375 [10] = assay: Growth inhibition assay (MTS/PMS) with DFMO, A375; type: cell-based; settings: in the presence of DFMO (1-5 mM), 1 mM AG, 0.5 μM SPD, six days; repeat determinations; read-out: Cell Line EC50 A375
Description: as §1

[11] = amino acid side chain, un-ionized fraction; Wolfenden 1981; cited from earlier work

Row | SMILES | EC50 [1] [nM] | IC50 (PC-3 [2]) | IC50 (SK-OV-3 [3]) | EC50 (SK-OV-3 [5]) | EC50 (MDA-MB-231 [6]) | EC50 (PC-3 [7]) | IC50 (MDA-MB-231 [8]) [nM] | EC50 (A375 [10]) | Ki [4] [nM] | other results
1 | CCCCCCCCCCCCCCCCCCCC(=O)NCCCC[C@H](N)C(=O)NCCCNCCCCNCCCN [IA1] | 17 | > 3000 nM | > 3000 nM |  |  |  |  |  | 15 | 
2 | CCCCCCCCCCCCCCCCCC(=O)NCCCC[C@H](N)C(=O)NCCCNCCCCNCCCN [IA2] | 14 |  |  | 27 nM and 21 nM |  |  |  |  | 1.4 | 
3 | CCCCCCCCCCCCCCCC(=O)NCCCC[C@H](N)C(=O)NCCCNCCCCNCCCN [IA4] | 77 |  |  |  |  |  |  |  | 1.5 | 
4 | CCCCCCCCCCCCCCCC(=O)NCCCC[C@@H](N)C(=O)NCCCNCCCCNCCCN [IB4] | 105 |  |  |  |  |  |  |  | 17 | 
5 | CCCCCCCCC(=O)NCCCC[C@@H](N)C(=O)NCCCNCCCCNCCCN [IB6] |  |  |  |  |  |  |  |  | 75 | IC50 (A375 [9]; Homo sapiens, A-375, 144 h): > 30000 nM; IC50 (PC-3 [2]; Homo sapiens, PC-3, 144 h): > 30000 nM; IC50 (SK-OV-3 [3]; Homo sapiens, SK-OV-3, 144 h): > 30000 nM
6 | [HH] [hydrogen] |  |  |  |  |  |  |  |  |  | free energy for the transfer from the vapor phase to H2O (hydration potential) [11]: 2.39 kcal/mol
7 | C [methane] |  |  |  |  |  |  |  |  |  | free energy for the transfer from the vapor phase to H2O (hydration potential) [11]: 1.94 kcal/mol
8 | CCCCN [n-butylamine] |  |  |  |  |  |  |  |  |  | free energy for the transfer from the vapor phase to H2O (hydration potential) [11]: -7.00 kcal/mol
9 | CCCNC(=N)N [n-propylguanidine] |  |  |  |  |  |  |  |  |  | free energy for the transfer from the vapor phase to H2O (hydration potential) [11]: -14.6 kcal/mol

Second part, led by results:

Row | EC50 [1] [nM] | IC50 (PC-3 [2]) | IC50 (SK-OV-3 [3]) | EC50 (SK-OV-3 [5]) | EC50 (MDA-MB-231 [6]) | EC50 (PC-3 [7]) | IC50 (MDA-MB-231 [8]) [nM] | EC50 (A375 [10]) | SMILES | Ki [4] [nM] | other results
10 |  | > 300000 nM |  |  | 41300 nM and 29800 nM | 8510 nM and 7870 nM | > 300000 |  | NCCCNCCCCNCCCNC(=O)[C@@H](N)CCCCNC(=O)OCc1ccccc1 [IA40] | 39 | 
11 |  | 430000 nM |  |  | 36900 nM | 16900 nM | > 300000 |  | CC(C)(C)OC(=O)N[C@@H](CCCCN)C(=O)NCCCNCCCCNCCCN [IC41] | 191 | 
12 | 72 |  |  | 98 nM and 83 nM and 80 nM |  |  |  | 16 nM and 10 nM and 9 nM | CCCCCCCCCCCCCCCCS(=O)(=O)NCCCC[C@H](N)C(=O)NCCCNCCCCNCCCN [IIA10] | 4 | 
13 | 110 | 22000 nM and 19900 nM | 18100 nM and 23100 nM | 134 nM and 224 nM | 169 nM | 99 nM and 74 nM | > 30000 | 26 nM and 44 nM | CCCCCCCCCCCCCCCCS(=O)(=O)NCCCC[C@@H](N)C(=O)NCCCNCCCCNCCCN [IIB10] | 2 | IC50 (A375 [9]): 18000 nM and 17700 nM
14 | 583 | > 30000 nM | > 30000 nM | 1570 nM | 491 nM | 99 nM | > 30000 | 170 nM | CCCCCCCC/C=C\CCCCCCCC(=O)NCCCC[C@@H](N)C(=O)NCCCNCCCCNCCCN [IIIB1] | 54 | IC50 (A375 [9]): > 30000 nM
15 | 3410 | > 100000 nM | > 100000 nM | 7560 nM and 6070 nM | 1990 nM | 910 nM and 1530 nM | > 100000 | 2400 nM | NCCCNCCCCNCCCNC(=O)[C@H](N)CCCCNCC1CC2CCC1C2 (some centres unmarked) [IVB26] |  | IC50 (A375 [9]): > 100000 nM
16 | 5090 | > 100000 nM | 67700 nM | 9500 nM | 8030 nM | 1880 nM | > 100000 | 940 nM | CCCCCCCNCCCC[C@@H](NCCCCCCC)C(=O)NCCCNCCCCNCCCN [IVF6] |  | IC50 (A375 [9]): 67900 nM
17 | 1800 | > 100000 nM | > 100000 nM | 2160 nM | 2340 nM | 500 nM | > 100000 | 2180 nM | NCCCNCCCCNCCCNC(=O)[C@@H](CCCCNCC1CCCCC1)NCC1CCCCC1 [IVF27] |  | IC50 (A375 [9]): > 100000 nM
